This is an account of results in patent US10357036B2, “Compounds for controlling arthropods” (priority 2015, dated 2019).

In one series the test system is Spodoptera frugiperda. Description: Spodoptera frugiperda spray test. The class given is in vivo. To be noted: 100 g/ha, after 7 days; for pest or weed control at 100 g/ha: Spodoptera frugiperda, 168 h, read-out: efficacy.
The next series has as its system Tetranychus urticae. Description: Tetranychus urticae spray test, OP-resistant (bean leaf discs). In kind it is in vivo. As to conditions: 100 g/ha; after 6 days. Here is the method:
(§1) After 6 days, the efficacy in % is determined.

The subject of a further series is Phaedon cochleariae. As to the kind of experiment: Phaedon cochleariae spray test. To be noted: for pest or weed control at 100 g/ha: Phaedon cochleariae, 168 h, read-out: efficacy; for efficacy: 100 g/ha, after 7 days.
Another series concerns Rhipicephalus sanguineus. As to the kind of experiment: Rhipicephalus sanguineus in vitro contact test with adult brown dog ticks. The class given is in vivo. As to conditions: application rate 5 μg/cm^2 (=500 g/ha); after 48 h; dead or moribund ticks. The method in brief: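 Efficacy, as % of ticks dead or moribund, was judged 48 h after placing 5-10 adult brown dog ticks in acetone-coated tubes (5 μg/cm^2 from 900 ppm) kept dark at room temperature. Ticks unable to climb away from a 45-50° C hotplate within 5 min counted as affected.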

Series [1] relates to Ctenocephalides felis. As to the kind of experiment: Ctenocephalides felis oral test. The class given is in vivo. As to conditions: 100 ppm in citrated cattle blood; after 2 days.
In a further series the test system is Boophilus microplus. As to the kind of experiment: Boophilus microplus injection test. As to conditions: 20 μg/animal; assessed after 7 days. The class given is in vivo. The procedure:
(§2) • Solvent: dimethyl sulfoxide
1 μl of the active ingredient solution is injected into the abdomen of 5 engorged adult female cattle ticks (Boophilus microplus). The animals are transferred into dishes and kept in a climate-controlled room.

For another series, the system named is Myzus persicae. As to the kind of experiment: Myzus persicae spray test (Chinese cabbage leaf discs). The class given is in vivo. As to conditions: 100 g/ha; after 6 days. Here is the method:
as §1

For a further series, the system named is Musca domestica. Description: Musca domestica test. The class given is in vivo. As to conditions: 100 ppm; adult houseflies; after 2 days. Here is the method: as §2
To produce a suitable active ingredient formulation, 10 mg of active ingredient are mixed with 0.5 ml of dimethyl sulfoxide, and the concentrate is diluted with water to the desired concentration.
Vessels containing a sponge treated with sugar solution and the active ingredient formulation of the desired concentration are populated with 10 adult houseflies (Musca domestica).

In series [2] the test system is Ctenocephalides felis. As to the kind of experiment: Ctenocephalides felis in vitro contact test with adult cat fleas. In kind it is in vivo. To be noted: application rate 5 μg/cm^2 (=500 g/ha); after 48 h; dead or moribund fleas. In a few lines: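 After 48 h at room temperature and ambient humidity, adult cat fleas (5–10 per tube) were scored, with motionless or uncoordinated fleas counted dead or moribund. Tubes had been coated with acetone solutions of compound, the 900 ppm solution giving 5 μg/cm². Efficacy: 100% means all fleas dead or moribund, 0% none harmed.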

Series [3] deals with cattle ticks (Boophilus microplus) Parkhurst strain, SP-resistant. As to the kind of experiment: Boophilus microplus dip test. In kind it is in vivo. As to conditions: 100 ppm; assessed after 7 days. Here is the method: • Test animals: cattle ticks (Boophilus microplus) Parkhurst strain, SP-resistant • Solvent: dimethyl sulfoxide
10 mg of active ingredient are dissolved in 0.5 ml of dimethyl sulfoxide. To produce a suitable formulation, the active ingredient solution is diluted with water to the concentration desired in each case.
This active ingredient formulation is pipetted into tubes. 8-10 engorged adult female cattle ticks (Boophilus microplus) are transferred into a further tube with holes. The tube is immersed into the active ingredient formulation, and all the ticks are completely wetted. After the liquid has run out, the ticks are transferred on filter discs into plastic dishes and stored in a climate-controlled room.
Efficacy is assessed after 7 days by laying of fertile eggs. Eggs which are not visibly fertile are stored in a climate-controlled cabinet until the larvae hatch after about 42 days. An efficacy of 100% means that none of the ticks has laid any fertile eggs; 0% means that all the eggs are fertile.

Setting [4] is: reversed-phase C18 HPLC column, logP, HPLC, C18, acetonitrile/water with formic acid (note a).
Where [5] appears, read: reversed-phase C18 HPLC column, logP^a, HPLC-MS method a).

Like-named read-outs stand apart in the source and are kept apart here.

For orientation: chromatographic logP means a lipophilicity value derived from retention on a column. A low value points to a more hydrophilic compound. Regarding `CC(=O)NCc1cc(-c2cn(-c3c(Cl)cc(C(F)(C(F)(F)F)C(F)(F)F)cc3Cl)nn2)ccc1Cl` [I-T7-01, N-(2-chloro-5-{1-[2,6-dichloro-4-(1,1,1,2,3,3,3-heptafluoropropan-2-yl)phenyl]-1H-1,2,3-triazol-4-yl}benzyl)acetamide], the pest or weed control at 100 g/ha with Spodoptera frugiperda and in the series with Phaedon cochleariae was 100% each time. Under setting [4], this compound yielded a chromatographic logP of 3.94. Besides, the efficacy in the series on Tetranychus urticae is on record as 90%.

On to `CCC(=O)NC1CCc2ccc(-c3cnn(-c4c(Cl)cc(C(F)(C(F)(F)F)C(F)(F)F)cc4OC(F)(F)F)c3)cc21` (stereo not shown) [I-Tc-01, N-(6-{1-[2-chloro-4-(1,1,1,2,3,3,3-heptafluoropropan-2-yl)-6-(trifluoromethoxy)phenyl]-1H-pyrazol-4-yl}-2,3-dihydro-1H-inden-1-yl)propanamide], for which the pest or weed control at 100 g/ha with Spodoptera frugiperda stood at 100%. This compound returned a chromatographic logP under setting [4] of 4.84. The efficacy in the series with Rhipicephalus sanguineus was found to be 100%. In the series with Ctenocephalides felis [1], the “efficacy (rate of extermination)” value stood at 100%. Further, the “efficacy (laying of fertile eggs)” value in the series with Boophilus microplus is reported as 100%.

Turning to `CCC(=O)NCc1cc(-c2cnn(-c3c(Cl)cc(C(F)(C(F)(F)F)C(F)(F)F)cc3C(F)F)c2)ccc1F` [Ia-23], the efficacy with Spodoptera frugiperda turned out to be 100%; in the series with Myzus persicae it was 90%; in the series with Ctenocephalides felis [2], 100%; in the series with Rhipicephalus sanguineus, 100%; in the series with Tetranychus urticae, 100%; with Phaedon cochleariae, 100%. For the same compound, the “efficacy (rate of extermination)” value in the series with Musca domestica and in the series on Ctenocephalides felis [1] was 100% in each case. Also, the “efficacy (laying of fertile eggs)” value (in the series on Boophilus microplus; in [3]) was 100% each time.

For `CCC(=O)NCc1cc(-c2cnn(-c3c(Cl)cc(C(F)(C(F)(F)F)C(F)(F)F)cc3[S+](C)[O-])c2)ccc1F` (stereo not shown) [Ia-45, N-(5-{1-[2-chloro-4-(1,1,1,2,3,3,3-heptafluoropropan-2-yl)-6-(methylsulfinyl)phenyl]-1H-pyrazol-4-yl}-2-fluorobenzyl)propanamide], the chromatographic logP is, setting by setting: under setting [4], 3.52; under setting [5], 3.52. The pest or weed control at 100 g/ha in the series with Phaedon cochleariae came to 100%.

On to `CCC(=O)NCc1cc(-c2cnn(-c3c(Cl)cc(C(F)(C(F)(F)F)C(F)(F)F)cc3S(C)(=O)=O)c2)ccc1F` [Ia-46, N-(5-{1-[2-chloro-4-(1,1,1,2,3,3,3-heptafluoropropan-2-yl)-6-(methylsulfonyl)phenyl]-1H-pyrazol-4-yl}-2-fluorobenzyl)propanamide], for which the chromatographic logP reads like this: under setting [4], 3.65; under setting [5], 3.65. The compound further gave an efficacy in the series with Tetranychus urticae of 70%.

For `CC(=O)NCc1cc(-c2cnn(-c3c(C)cc(C(F)(C(F)(F)F)C(F)(F)F)cc3Cl)c2)ccc1F` [Ia-65], the efficacy in the series with Spodoptera frugiperda is on record as 100%; in the series with Myzus persicae, 90%; in the series on Ctenocephalides felis [2], 100%; in the series with Rhipicephalus sanguineus, 100%; with Tetranychus urticae, 100%; with Phaedon cochleariae, 100%. In addition, the “efficacy (rate of extermination)” value with Musca domestica and in the series on Ctenocephalides felis [1] was 100% throughout. Besides, the “efficacy (laying of fertile eggs)” value (in the series with Boophilus microplus; in series [3]) was 100% in each case.

Consider `CCC(=O)NCc1cc(-c2cnn(-c3c(C)cc(C(F)(C(F)(F)F)C(F)(F)F)cc3Cl)c2)ccc1F` [Ia-66], for which the efficacy is on record as 100% in the series with Spodoptera frugiperda; 70% in the series on Myzus persicae; 100% with Ctenocephalides felis [2]; 100% with Rhipicephalus sanguineus; 100% in the series on Tetranychus urticae; 100% in the series with Phaedon cochleariae. In addition, the “efficacy (rate of extermination)” value in the series with Musca domestica and with Ctenocephalides felis [1] was 100% each time. The “efficacy (laying of fertile eggs)” value in the series on Boophilus microplus turned out to be 100%; in [3], 95%.

As to `CC(=O)NCc1cc(-c2cnn(-c3c(Cl)cc(C(F)(C(F)(F)F)C(F)(F)F)cc3C(F)(F)F)c2)ccc1C` [Ia-79], the efficacy was 100% in the series with Spodoptera frugiperda; 90% in the series with Myzus persicae; 100% in the series on Ctenocephalides felis [2]; 100% with Rhipicephalus sanguineus; 100% with Tetranychus urticae. The “efficacy (rate of extermination)” value in the series with Musca domestica and in the series on Ctenocephalides felis [1] was 100% throughout. Further, the “efficacy (laying of fertile eggs)” value (in the series on Boophilus microplus; in [3]) was 100% in each case.

As for `CC(=O)NCc1cc(-c2cnn(-c3c(Cl)cc(C(F)(C(F)(F)F)C(F)(F)F)cc3Cl)c2)ccc1C` [Ia-90], the efficacy came out at 100% in the series with Spodoptera frugiperda; 90% in the series on Myzus persicae; 100% in the series with Ctenocephalides felis [2]; 100% with Rhipicephalus sanguineus; 100% in the series on Tetranychus urticae; 100% with Phaedon cochleariae. The “efficacy (rate of extermination)” value with Musca domestica and with Ctenocephalides felis [1] was 100% each time. Further, the “efficacy (laying of fertile eggs)” value (in the series with Boophilus microplus; in [3]) was 100% in each case.

Regarding `N#CCC(=O)NCc1cc(-c2cnn(-c3c(Cl)cc(C(F)(C(F)(F)F)C(F)(F)F)cc3Br)c2)ccc1Cl` [Ia-137, N-(5-{1-[2-bromo-6-chloro-4-(1,1,1,2,3,3,3-heptafluoropropan-2-yl)phenyl]-1H-pyrazol-4-yl}-2-chlorobenzyl)-2-cyanoacetamide], the pest or weed control at 100 g/ha in the series on Spodoptera frugiperda and in the series on Phaedon cochleariae was 100% each time. Besides, the “efficacy (rate of extermination)” value in the series on Musca domestica and in the series with Ctenocephalides felis [1] was 100% each time. In addition, the efficacy with Ctenocephalides felis [2] and with Tetranychus urticae was 100% each time. Besides, the chromatographic logP was 4.28 under setting [4] and 4.33 (reversed-phase C18 HPLC column, logP^a, HPLC-MS method a), reversed-phase column (C18)). Further, the “efficacy (laying of fertile eggs)” value in the series with Boophilus microplus worked out at 100%.

`CC(=O)NCc1c(F)ccc(-c2cnn(-c3c(Cl)cc(C(F)(C(F)(F)F)C(F)(F)F)cc3C(F)F)c2)c1F` [Ia-142]: the efficacy in the series on Spodoptera frugiperda came to 100%; in the series on Myzus persicae it was 90%; with Ctenocephalides felis [2] it was 100%; in the series on Rhipicephalus sanguineus, 80%; in the series on Tetranychus urticae, 100%; in the series with Phaedon cochleariae, 100%. Also, the “efficacy (rate of extermination)” value in the series with Musca domestica and in the series on Ctenocephalides felis [1] was 100% throughout. Besides, the results for the “efficacy (laying of fertile eggs)” value (with Boophilus microplus; in series [3]) were 100% and 80%, respectively.

For `CC(=O)NCc1cc(-c2cnn(-c3c(Cl)cc(C(F)(C(F)(F)F)C(F)(F)F)cc3C(F)F)c2)cnc1Cl` [Ia-145], the efficacy came to 100% with Spodoptera frugiperda, 90% with Myzus persicae, 100% in the series with Tetranychus urticae and 100% in the series with Phaedon cochleariae. The “efficacy (rate of extermination)” value in the series with Musca domestica and with Ctenocephalides felis [1] was 100% throughout. The “efficacy (laying of fertile eggs)” value (in the series on Boophilus microplus; in series [3]) was 100% throughout.

Turning to `CCS(=O)(=O)NCc1cc(-c2cnn(-c3c(Cl)cc(C(F)(C(F)(F)F)C(F)(F)F)cc3Cl)c2)ccc1Cl` [Ic-02, N-(2-chloro-5-{1-[2,6-dichloro-4-(1,1,1,2,3,3,3-heptafluoropropan-2-yl)phenyl]-1H-pyrazol-4-yl}benzyl)ethanesulfonamide], the pest or weed control at 100 g/ha in the series with Spodoptera frugiperda and in the series on Phaedon cochleariae was 100% each time. This compound also registered a chromatographic logP under setting [4] of 4.65.

Regarding `CCS(=O)(=O)N(C)Cc1cc(-c2cnn(-c3c(Cl)cc(C(F)(C(F)(F)F)C(F)(F)F)cc3Cl)c2)ccc1Cl` [Ic-03, N-(2-chloro-5-{1-[2,6-dichloro-4-(1,1,1,2,3,3,3-heptafluoropropan-2-yl)phenyl]-1H-pyrazol-4-yl}benzyl)-N-methylethanesulfonamide], the pest or weed control at 100 g/ha with Spodoptera frugiperda and in the series with Phaedon cochleariae was 100% throughout. The compound also returned a chromatographic logP under setting [4] of 5.21.
